{
  "source": "patent USRE48059E1",
  "about": "“Piperazine-substituted benzothiophenes for treatment of mental disorders” (Otsuka Pharmaceutical Co., Ltd., priority 2005, dated 2020)",
  "data": [
    {"system": "Serotonin (5-HT) uptake by rat brain synaptosome", "assay": "Serotonin (5-HT) uptake inhibitory activity by rat brain synaptosome", "format": "biochemical", "settings": "test compound 300 nM; rat frontal cortex crude synaptosome; tritium labeled 5-HT 8 nM", "method": "Measurement of Serotonin (5-HT) Uptake Inhibitory Activity of a Test Compound by Rat Brain Synaptosome\nWistar male rats were decapitated, the brain was retrieved and frontal cortex was dissected out, and it was homogenized in 0.32 M sucrose solution of a weight 20 times of the weight of the tissue using a Potter type homogenizer.\n5-HT uptake reaction was performed in a volume of 200 μl using a 96-well round bottom plate and pargyline (final concentration 10 μM) and sodium ascorbate (final concentration 0.2 mg/ml) were contained in the incubation buffer upon reaction and used.\nIncubation buffer (total counting), non-labeled 5-HT (final concentration 10 μM, non-specific counting) and the diluted test compound (final concentration 300 nM) were added to each well. One-tenth quantity of the final volume of the synaptosome fraction was added and after preincubated at 37° C. for 10 minutes, tritium labeled 5-HT solution (final concentration 8 nM) was added and uptake reaction was started at 37° C. The uptake time was 10 minutes and the reaction was terminated by vacuum filtration through a 96-well fiber glass filter paper plate, and after the filter paper was washed with cold normal saline, it was dried enough and Microscint0 (Perkin-Elmer) was added to the filter and remaining radioactivity on the filter was measured.", "units": {"Serotonin uptake inhibitory ratio (%)(300 nM)": "%"}, "values": [
      {"smiles": "O=c1ccc2ccc(OCCCCN3CCN(c4cccc5sccc45)CC3)cc2[nH]1", "note": "[Example 1, 7-[4-(4-benzo[b]thiophen-4-yl-piperazin-1-yl)butoxy]-1H-quinolin-2-one]", "Serotonin uptake inhibitory ratio (%)(300 nM)": 92.4},
      {"smiles": "O=c1[nH]c2ccccc2cc1OCCN1CCN(c2cccc3sccc23)CC1", "note": "[Example 2, 3-[2-(4-benzo[b]thiophen-4-yl-piperazin-1-yl)ethoxy]-1H-quinolin-2-one]", "Serotonin uptake inhibitory ratio (%)(300 nM)": 78.8},
      {"smiles": "Cc1cc(=O)[nH]c2cc(OCCCN3CCN(c4cccc5sccc45)CC3)ccc12", "note": "[Example 3, 7-[3-(4-benzo[b]thiophen-4-yl-piperazin-1-yl)propoxy]-4-methyl-1H-quinolin-2-one]", "Serotonin uptake inhibitory ratio (%)(300 nM)": 84.8},
      {"smiles": "Cc1cc(=O)[nH]c2cc(OCCCCN3CCN(c4cccc5sccc45)CC3)ccc12", "note": "[Example 4, 7-[4-(4-benzo[b]thiophen-4-yl-piperazin-1-yl)butoxy]-4-methyl-1H-quinolin-2-one]", "Serotonin uptake inhibitory ratio (%)(300 nM)": 91.0},
      {"smiles": "Cc1cc2ccc(OCCCN3CCN(c4cccc5sccc45)CC3)cc2[nH]c1=O", "note": "[Example 5, 7-[3-(4-benzo[b]thiophen-4-yl-piperazin-1-yl)propoxy]-3-methyl-1H-quinolin-2-one]", "Serotonin uptake inhibitory ratio (%)(300 nM)": 89.1},
      {"smiles": "Cc1cc2ccc(OCCCCN3CCN(c4cccc5sccc45)CC3)cc2[nH]c1=O", "note": "[Example 6, 7-[4-(4-benzo[b]thiophen-4-yl-piperazin-1-yl)butoxy]-3-methyl-1H-quinolin-2-one]", "Serotonin uptake inhibitory ratio (%)(300 nM)": 91.3},
      {"smiles": "O=c1ccc2ccc(OCCCN3CCN(c4cccc5sccc45)CC3)cc2[nH]1", "note": "[Example 7, 7-[3-(4-benzo[b]thiophen-4-yl-piperazin-1-yl)propoxy]-1H-quinolin-2-one]", "Serotonin uptake inhibitory ratio (%)(300 nM)": 91.0},
      {"smiles": "O=C1CCc2ccc(OCCCN3CCN(c4cccc5sccc45)CC3)cc2N1", "note": "[Example 10, 7-[3-(4-benzo[b]thiophen-4-yl-piperazin-1-yl)propoxy]-3,4-dihydro-1H-quinolin-2-one]", "Serotonin uptake inhibitory ratio (%)(300 nM)": 92.6},
      {"smiles": "O=C1CCc2ccc(OC/C=C\\CN3CCN(c4cccc5sccc45)CC3)cc2N1", "note": "[Example 13, 7-[4-(4-benzo[b]thiophen-4-yl-piperazin-1-yl)-(Z)-2-butenyloxy]-3,4-dihydro-1H-quinolin-2-one]", "Serotonin uptake inhibitory ratio (%)(300 nM)": 77.0},
      {"smiles": "O=C1CCc2ccc(OC/C=C/CN3CCN(c4cccc5sccc45)CC3)cc2N1", "note": "[Example 15, 7-[4-(4-benzo[b]thiophen-4-yl-piperazin-1-yl)-(E)-2-butenyloxy]-3,4-dihydro-1H-quinolin-2-one]", "Serotonin uptake inhibitory ratio (%)(300 nM)": 87.2},
      {"smiles": "CC1CC(=O)Nc2cc(OCCCCN3CCN(c4cccc5sccc45)CC3)ccc21", "note": "(stereo not shown) [Example 16, 7-[4-(4-benzo[b]thiophen-4-yl-piperazin-1-yl)butoxy]-4-methyl-3,4-dihydro-1H-quinolin-2-one]", "Serotonin uptake inhibitory ratio (%)(300 nM)": 86.7},
      {"smiles": "O=C1CCc2cc(OCCCCN3CCN(c4cccc5sccc45)CC3)ccc2N1", "note": "[Example 20, 6-[4-(4-benzo[b]thiophen-4-yl-piperazin-1-yl)butoxy]-3,4-dihydro-1H-quinolin-2-one]", "Serotonin uptake inhibitory ratio (%)(300 nM)": 92.8},
      {"smiles": "O=C1c2ccccc2CCN1CCCCCN1CCN(c2cccc3sccc23)CC1", "note": "[Example 24, 2-[5-(4-benzo[b]thiophen-4-yl-piperazin-1-yl)pentyl]-3,4-dihydro-2H-isoquinolin-1-one]", "Serotonin uptake inhibitory ratio (%)(300 nM)": 97.5},
      {"smiles": "O=C1NCCc2cc(OCCCN3CCN(c4cccc5sccc45)CC3)ccc21", "note": "[Example 25, 6-[3-(4-benzo[b]thiophen-4-yl-piperazin-1-yl)propoxy]-3,4-dihydro-2H-isoquinolin-1-one]", "Serotonin uptake inhibitory ratio (%)(300 nM)": 91.9},
      {"smiles": "CN1CCc2cc(OCCCN3CCN(c4cccc5sccc45)CC3)ccc2C1=O", "note": "[Example 26, 6-[3-(4-benzo[b]thiophen-4-yl-piperazin-1-yl)propoxy]-2-methyl-3,4-dihydro-2H-isoquinolin-1-one]", "Serotonin uptake inhibitory ratio (%)(300 nM)": 92.0},
      {"smiles": "CCN1CCc2cc(OCCCN3CCN(c4cccc5sccc45)CC3)ccc2C1=O", "note": "[Example 27, 6-[3-(4-benzo[b]thiophen-4-yl-piperazin-1-yl)propoxy]-2-ethyl-3,4-dihydro-2H-isoquinolin-1-one]", "Serotonin uptake inhibitory ratio (%)(300 nM)": 94.0},
      {"smiles": "O=c1c2ccccc2ccn1CCCCN1CCN(c2cccc3sccc23)CC1", "note": "[Example 34, 2-[4-(4-benzo[b]thiophen-4-yl-piperazin-1-yl)butyl]-2H-isoquinolin-1-one]", "Serotonin uptake inhibitory ratio (%)(300 nM)": 94.2},
      {"smiles": "O=c1[nH]ccc2cc(OCCCN3CCN(c4cccc5sccc45)CC3)ccc12", "note": "[Example 40, 6-[3-(4-benzo[b]thiophen-4-yl-piperazin-1-yl)propoxy]-2H-isoquinolin-1-one]", "Serotonin uptake inhibitory ratio (%)(300 nM)": 91.6}
    ]},
    {"target": "Human recombinant dopamine D2 receptor (Homo sapiens (Human), UniProt P14416)", "sequence (P14416 whole entry)": "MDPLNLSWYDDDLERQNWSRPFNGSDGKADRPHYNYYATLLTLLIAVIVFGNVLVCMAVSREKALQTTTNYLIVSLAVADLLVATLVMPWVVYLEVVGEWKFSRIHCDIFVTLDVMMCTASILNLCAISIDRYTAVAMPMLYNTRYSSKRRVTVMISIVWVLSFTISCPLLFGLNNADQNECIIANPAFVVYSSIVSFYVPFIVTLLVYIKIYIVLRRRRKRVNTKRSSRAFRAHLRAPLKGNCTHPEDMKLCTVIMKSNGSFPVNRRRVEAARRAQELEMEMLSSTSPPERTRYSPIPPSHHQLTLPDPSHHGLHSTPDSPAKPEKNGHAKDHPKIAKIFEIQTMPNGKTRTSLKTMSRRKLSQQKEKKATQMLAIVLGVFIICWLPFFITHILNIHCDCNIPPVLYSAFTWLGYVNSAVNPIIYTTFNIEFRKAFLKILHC", "assay": "not given", "settings": "forskolin stimulation; well without test compound = 100%; CHO/DHFR(-) cells", "method": "Partial agonistic activity on dopamine D2 receptor using D2 receptor expression cells\nPartial agonistic activity on dopamine D2 receptor was evaluated by quantitatively determining cyclic AMP production inhibitory effect of a test compound in dopamine D2 receptor expression cells in which adenosine 3′,5′-cyclic monophosphate (cyclic AMP) production was induced by forskolin stimulation.\nHuman recombinant dopamine D2 receptor expressing Chinese hamster ovary/DHFR(−) cells were cultured in a culture medium (Iscove's Modified Dulbecco's Medium (IMDM culture medium), 10% fetal bovine serum, 50 I.U./ml penicillin, 50 μg/ml streptomycin, 200 μg/ml geneticin, 0.1 mM sodium hypoxanthine, 16 μM thymidine) at 37° C. and 5% carbon dioxide condition. Cells were seeded at 10^4 cells/well on a 96-well microtiter plate coated with poly-L-lysine and grown under the same condition for 2 days. Each well was washed with 100 μl of a culture medium (IMDM culture medium, 0.1 mM sodium hypoxanthine, 16 μM thymidine).", "values": [
      {"smiles": "NCCc1ccc(O)c(O)c1", "note": "[dopamine]", "quantity of cyclic AMP as the maximum activity": "about 10%"}
    ]}
  ]
}
